According to paper PMC9794608 (Frontiers in Veterinary Science, 2022):
Like-named read-outs stand apart in the source and are kept apart here.

Legend:
[1] = Plasma pharmacokinetics after single and repeat oral dose, LC-MS/MS, non-compartmental analysis; assay type: in vivo, Beagle dogs; details: for Sapanisertib accumulation with repeat dosing: 0.1 mg/kg p.o. QOD; for Cmax: read-out: CMAX (sapanisertib in plasma)
Experimental: Laboratory Beagle dogs (Charles River Labs, Mattawan, MI) served as surrogates in testing compounds proposed for application in canine clinical cancer care. The animals were at least six months old and weighed 6.4–8.8 kg at the initiation of study. They had routine veterinary care and had not been used in any previous studies. The study was conducted in AAALAC-accredited animal facilities [Charles River Laboratories, Inc., Mattawan, MI; NIH Office of Laboratory Animal Welfare Assurance approval (https://olaw.nih.gov/assured/app/index.html)], under review, monitoring, and approval of the facility's Institutional Animal Care and Use Committee according to U.S. Public Health Service national guidelines and regulations for the care and use of laboratory animals. The study was not designed to incorporate Good Laboratory Practices (GLP) regulatory criteria. Animals on study were monitored daily or more frequently and body weights were recorded, while periodic specimens were obtained for laboratory analyses. Clinical pathology analyses were included for hematology, serum chemistry, coagulation, urinalysis, and chemical bioanalysis was accomplished for pharmacokinetics (PK) (Table 1, repeat dose study) (Charles River Laboratories, Mattawan, MI).
Six male and six female beagle dogs were enrolled in a parallel, three-arm, fixed, repeat oral-dose study. […] In Group 2, two male (23001, 23002) and two female (23501, 23502) dogs were given sapanisertib alone (0.1 mg/kg) every other day (p.o., QOD). […] All dogs were dosed on study day 1 to obtain single dose PK samples, and then dosed serially days 4–20. Dogs were fasted overnight prior to dosing and fed ad libitum 2 h (hrs) following dose administration.
Plasma samples for PK were collected at pre-dose (-7 days), then beginning day 1 following the initial dose of each study group at 1, 2, 4, 8, 24, 48, and 72 h. On day 6, plasma samples were collected pre-dose, then 1, 2, 4, 8, and 24 h post-dose. On days 10 and 15, a 2-h post-dose sample was collected. On day 20, plasma samples were drawn at pre-dose and 1, 2, 4, 8, 24, 48, and 72 h post-dose. Treatment schedule and clinical pathology specimen sampling intervals are outlined in Table 1.
Each 50 μL aliquot of known concentration standards, quality control sample, or study sample was mixed with 200 μL of working internal standard solution (10 ng/mL in acetonitrile). The samples were vortexed and centrifuged. A 150 μL aliquot of the resulting supernatant was transferred to a clean 96-well plate, evaporated, and reconstituted with 100 μL of water/acetonitrile (40/60, v/v). An aliquot was injected onto an LC-MS/MS XBridge BEH C18 liquid chromatography system (Waters Associates, Framingham, MA) having 50 x 2.1 mm (2.5 μm particle size) column with an isocratic flow consisting of water/formic acid (100/0.1, v/v) and acetonitrile/formic acid (100/0.1, v/v) at a flow rate of 0.3000 mL/min for analysis. The analyte and internal standard were detected using an API 6500+ triple quadrupole LC-MS/MS system (AB Sciex, LLC, Framingham, MA) equipped with an ESI (TurboIonSpray®) ionization source operated in the positive ion mode.
A non-compartmental approach to PK analysis was employed using Phoenix WinNonlin v8.3 (Certara Corp, Cary, NC) that was validated per FDA 21CFR Part 11 regulations. The maximum plasma concentration (CMAX) and the time of maximum plasma concentration (TMAX) were recorded as observed values. […] AUCINF (the AUC from time zero to infinity) was calculated by extrapolation by dividing CLAST (the last measurable drug concentration) by the rate constant of the terminal phase, λZ. This constant was determined from the slope of the terminal phase of the concentration-time curve using uniformly-weighted least-squares as the estimation procedure and acceptance criteria of (i) adjusted r^2 > 0.8, (ii) includes > 3 time points in the terminal phase occurring after the TMAX. […]

mice = system: mice; design: method as in PMID 32943547; details: cited from earlier work
[2] = First dose (Day 1), sapanisertib 0.1 mg/kg p.o., mean (%CV), n = 4
[3] = canine sapanisertib only group 0.1 mg/kg versus human cancer patients receiving 4 mg oral sapanisertib

Question: What does the source list for CC(C)n1nc(-c2ccc3oc(N)nc3c2)c2c(N)ncnc21 [Sapanisertib]?
Answer: Sapanisertib accumulation with repeat dosing ([1]; day 1 to day 20): did not display accumulation; Sapanisertib accumulation with repeat dosing ([1]; day 1 to day 20, listed as sapanisertib): not observed to significantly accumulate; AUCINF (sapanisertib in plasma) [1, 2]: 247.5 (41%) hr^*ng/mL; V/F (sapanisertib) [1, 2]: 3.85 (34%) L/kg; V/F (sapanisertib) ([1]; Steady-state (Day 20), sapanisertib 0.1 mg/kg p.o. QOD, mean (%CV), n = 4): 3.97 (33%) L/kg; Sapanisertib plasma level at day 15 ([1]; approximately 24 h from the previous dose, Groups 2,3): minimal detectable; half-life ([1]; both sexes, beagle, dog, plasma, po, 0.1 mg/kg, 0.1 mg/kg p.o., day 1 to day 20, read-out: Sapanisertib half-life (range)): 4.8 to 6.8 h; AUC(0-inf) ([1]; both sexes, beagle, dog, plasma, po, 0.1 mg/kg, First dose (Day 1), sapanisertib 0.1 mg/kg p.o., mean (%CV), n = 4, read-out: AUCINF (sapanisertib in plasma)): 248 ng·h/mL; half-life ([1]; both sexes, beagle, dog, plasma, po, 0.1 mg/kg, First dose (Day 1), sapanisertib 0.1 mg/kg p.o., mean (%CV), n = 4, read-out: T1/2 (sapanisertib in plasma) (converted)): 5.94 h; Tmax ([1]; both sexes, beagle, dog, plasma, po, 0.1 mg/kg, First dose (Day 1), sapanisertib 0.1 mg/kg p.o., median (range), n = 4, read-out: TMAX (sapanisertib in plasma)): 2 h; Cmax ([1]; both sexes, beagle, dog, plasma, po, 0.1 mg/kg, Steady-state (Day 6), sapanisertib 0.1 mg/kg p.o. QOD, mean (%CV), n = 4): 28.1 ng/mL; Cmax ([1]; both sexes, beagle, dog, plasma, po, 0.1 mg/kg, Steady-state (Day 10), sapanisertib 0.1 mg/kg p.o. QOD, mean (%CV), n = 4): 23.6 ng/mL; AUC ([1]; both sexes, beagle, dog, plasma, po, 0.1 mg/kg, Steady-state (Day 20), sapanisertib 0.1 mg/kg p.o. QOD, mean (%CV), n = 4, read-out: AUCTAU (sapanisertib in plasma)): 250 ng·h/mL; Cmax ([1]; both sexes, beagle, dog, plasma, po, 0.1 mg/kg, Steady-state (Day 20), sapanisertib 0.1 mg/kg p.o. QOD, mean (%CV), n = 4): 27.4 ng/mL; half-life ([1]; both sexes, beagle, dog, plasma, po, 0.1 mg/kg, Steady-state (Day 20), sapanisertib 0.1 mg/kg p.o. QOD, mean (%CV), n = 4, read-out: T1/2 (sapanisertib in plasma) (converted)): 6.28 h; Tmax ([1]; both sexes, beagle, dog, plasma, po, 0.1 mg/kg, Steady-state (Day 20), sapanisertib 0.1 mg/kg p.o. QOD, median (range), n = 4, read-out: TMAX (sapanisertib in plasma)): 2 h; Tmax ([1]; both sexes, beagle, dog, plasma, po, 0.1 mg/kg, dogs, 0.1 mg/kg p.o., read-out: Sapanisertib Tmax on average): 2 h; CL/F ([1]; both sexes, beagle, dog, plasma, po, First dose (Day 1), sapanisertib 0.1 mg/kg p.o., mean (%CV), n = 4): 7.83 mL/min/kg; Cmax ([1]; both, beagle, dog, plasma, po, 0.1 mg/kg, First dose (Day 1), sapanisertib 0.1 mg/kg p.o., alone or with trametinib […] (see label), arithmetic mean (%CV), n = 4): 26.3 ng/mL; Mean animal to human exposure ratio, AUCINF [1, 3]: 1.31; Mean animal to human exposure ratio, CMAX [1, 3]: 1.11; Mean animal to human exposure ratio, T1/2 [1, 3]: 0.91; Sapanisertib absorption time (range) ([1]; initial and repeat dose, 0.1 mg/kg p.o.): 1 to 4 h; Kidney findings in mice, every other day dosing (mice; mice, […] sapanisertib every other day): did not exhibit substantive AKI; Kidney findings in mice, daily dosing (mice; some mice given […] sapanisertib daily): acute kidney injury (AKI) with moderate histopathological cortical tubular epithelial degeneration and necrosis
